Measurements as given in patent US7915291B2, “Hepatitis C virus inhibitors” (Bristol-Myers Squibb Company, priority 2002, dated 2011).
pEC50, pIC50: −log10 of the molar value.

Experiments:
[1] = target: HCV NS3/4A protease complex, BMS strain (UniProt P27958, C1454S/C1711G, species not given/STRAIN_BMS); experiment: Recombinant HCV NS3/4A protease complex FRET peptide assay (BMS strain); format: biochemical, HCV genotype 1a; details: NS3/4A BMS strain; read-out: IC50 range
Excerpt: Recombinant HCV NS3/4A Protease Complex FRET Peptide Assay
The purpose of this in vitro assay was to measure the inhibition of HCV NS3 protease complexes, derived from the BMS, H77C or J416S strains, as described below, by compounds of the present invention.
Serum from an HCV-infected patient was obtained from Dr. T. Wright, San Francisco Hospital. An engineered full-length cDNA (compliment deoxyribonucleic acid) template of the HCV genome (BMS strain) was constructed from DNA fragments obtained by reverse transcription-PCR(RT-PCR) of serum RNA (ribonucleic acid) and using primers selected on the basis of homology between other genotype 1a strains.
The BMS, H77C and J4L6S strains were used for production of recombinant NS3/4A protease complexes. […] Briefly, a three-lysine solubilizing tail was added at the 3′-end of the NS4A coding region. […] Briefly, NS3/4A expression was induced with 0.5 mM Isopropyl β-D-1-thiogalactopyranoside (IPTG) for 22 hr at 20° C. […] The crude protein extract was loaded on a Nickel—Nitrilotriacetic acid (Ni-NTA) column pre-equilibrated with buffer B (25 mM HEPES, pH8.0, 20% glycerol, 500 mM NaCl, 0.5% Triton-X100, 15 mM imidazole, 5 mM βME). The sample was loaded at a flow rate of 1 mL/min. The column was washed with 15 column volumes of buffer C (same as buffer B except with 0.2% Triton-X100). The protein was eluted with 5 column volumes of buffer D (same as buffer C except with 200 mM Imidazole).
NS3/4A protease complex-containing fractions were pooled and loaded on a desalting column Superdex-S200 pre-equilibrated with buffer D (25 mM HEPES, pH7.5, 20% glycerol, 300 mM NaCl, 0.2% Triton-X100, 10 mM βME). Sample was loaded at a flow rate of 1 mL/min. NS3/4A protease complex-containing fractions were pooled and concentrated to approximately 0.5 mg/ml.
The enzyme was stored at −80° C., thawed on ice and diluted prior to use in assay buffer. […] The sequence of this peptide is loosely based on the NS4A/NS4B natural cleavage site except there is an ester linkage rather than an amide bond at the cleavage site. The peptide substrate was incubated with one of the three recombinant NS3/4A complexes, in the absence or presence of a compound of the present invention, and the formation of fluorescent reaction product was followed in real time using a Cytofluor Series 4000.
The reagents were as follow: HEPES and Glycerol (Ultrapure) were obtained from GIBCO-BRL. Dimethyl Sulfoxide (DMSO) was obtained from Sigma. β-Mercaptoethanol was obtained from Bio Rad.
Substrate: 2 μM final concentration (from a 2 mM stock solution in DMSO stored at −20° C.). HCV NS3/4A type 1a (1b), 2-3 nM final concentration (from a 5 μM stock solution in 25 mM HEPES, pH7.5, 20% glycerol, 300 mM NaCl, 0.2% Triton-X100, 10 mM βME).
The assay was performed in a 96-well polystyrene black plate from Falcon. Each well contained 25 μl NS3/4A protease complex in assay buffer, 50 μof a compound of the present invention in 10% DMSO/assay buffer and 25 μl substrate in assay buffer. A control (no compound) was also prepared on the same assay plate. The enzyme complex was mixed with compound or control solution for 1 min before initiating the enzymatic reaction by the addition of substrate. The assay plate was read immediately using the Cytofluor Series 4000 (Perspective Biosystems). The instrument was set to read an […] at 25° C. Reactions were generally followed for approximately 15 minutes.
The percent inhibition was calculated with the following equation: 100−[(δFinh/δFcon)×100] where δF is the change in fluorescence over the linear range of the curve.

[2] = system: HCV replicon in Huh7 cells; experiment: HCV replicon cell-based assay; design: species or system HCV strain 1B; details: Hepatitis C virus, Huh-7; HCV replicon, Huh7 cells; read-out: EC50 range
Excerpt: HCV Replicon Cell-based Assay
This system enabled us to evaluate the effects of our HCV Protease compounds on HCV RNA replication. Briefly, using the HCV strain 1B sequence described in the Lohmann paper (Assession number:AJ238799), an HCV cDNA was generated encoding the 5′ internal ribosome entry site (IRES), the neomycin resistance gene, the EMCV (encephalomyocarditis virus)-IRES and the HCV nonstructural proteins, NS3-NS5B, and 3′ non-translated region (NTR). In vitro transcripts of the cDNA were transfected into the human hepatoma cell line, Huh7. […] Resulting cell lines were characterized for positive and negative strand RNA production and protein production over time.
Huh7 cells, constitutively expressing the HCV replicon, were grown in Dulbecco's Modified Eagle Media (DMEM) containing 10% Fetal calf serum (FCS) and 1 mg/ml G418 (Gibco-BRL). Cells were seeded the night before (1.5×10^4 cells/well) in 96-well tissue-culture sterile plates. Compound and no compound controls were prepared in DMEM containing 4% FCS, 1:100 Penicillin/Streptomysin, 1:100 L-glutamine and 5% DMSO in the dilution plate (0.5% DMSO final concentration in the assay). Compound/DMSO mixes were added to the cells and incubated for 4 days at 37° C. After 4 days, plates were rinsed thoroughly with Phosphate-Buffered Saline (PBS) (3 times 150 μl). The cells were lysed with 25 μl of a lysis assay reagent containing the FRET peptide (RET S1, as described for the in vitro enzyme assay). The lysis assay reagent was made from 5× cell Luciferase cell culture lysis reagent(Promega #E153A) diluted to 1× with distilled water, NaCl added to 150 mM final, the FRET peptide diluted to 10 μM final from a 2 mM stock in 100% DMSO. The plate was then placed into the Cytofluor 4000 instrument which had been set to 340 nm excitation/490 emission, automatic mode for 21 cycles and the plate read in a kinetic mode. EC50 determinations were carried out as described for the IC50 determinations.
Cells were lyzed using the Rneasy kit (Qiagen). […] All primers were designed with ABI Prism 7700 software and obtained from Biosearch Technologies, Novato, Calif. Samples containing known concentrations of HCV RNA transcript were run as standards. Using the following cycling protocol (50° C., 30 min; 95° C., 5 min; 40 cycles of 95° C., 15 sec, 60° C., 1 min), HCV RNA expression was quantitated as described in the Perkin Elmer manual using the ABI Prism 7700 Sequence Detector.

SMILES | pIC50 [1] | pEC50 [2]
C=C[C@@H]1C[C@]1(NC(=O)[C@@H]1C[C@@H](Oc2nccc3cc(OC)ccc23)CN1C(=O)[C@@H](NC(=O)N[C@H](C(=O)OC(C)(C)C)C(C)C)C(C)(C)C)C(=O)NS(=O)(=O)C1CC1 [Compound 152] | > 7.00 | > 7.00
CC[C@@H]1C[C@]1(NC(=O)[C@@H]1C[C@@H](Oc2nccc3ccc(C)cc23)CN1C(=O)[C@@H](NC(=O)OC(C)(C)C)C(C)(C)C)C(=O)NS(=O)(=O)C1CC1 [Compound 296] | > 7.00 | 6.00 to 7.00
C=C[C@@H]1C[C@]1(NC(=O)[C@@H]1CC(Oc2nccc3cc(OC)ccc23)CN1C(=O)[C@@H](NC(N)=O)C(C)(C)C)C(=O)NS(=O)(=O)C1CC1 (stereo partly shown) [Compound 80] | > 7.00 | 5.00 to 6.00
C=C[C@@H]1C[C@]1(NC(=O)[C@@H]1C[C@@H](Oc2nccc3cc(OC)ccc23)CN1C(=O)[C@@H](NC(=O)NC(C)(C)CC)[C@H](C)OC)C(=O)NS(=O)(=O)C1CC1 [Compound 102] | > 7.00 | > 7.00
CC[C@@H]1C[C@]1(NC(=O)[C@@H]1C[C@@H](Oc2nccc3cc(OC)ccc23)CN1C(=O)[C@@H](NC(=O)OC(C)(C)C)C(C)(C)C)C(=O)NS(=O)(=O)C1CC1 [Compound 14] | > 7.00 | > 7.00
C=CC1C[C@]1(NC(=O)[C@@H]1C[C@@H](Oc2nccc(-c3ccccn3)n2)CN1C(=O)[C@@H](NC(=O)OC)C(C)(C)C)C(=O)NS(=O)(=O)C1CC1 (stereo partly shown) [Compound 336] | 6.00 to 7.00 | 5.00 to 6.00
C=C[C@@H]1C[C@]1(NC(=O)[C@@H]1C[C@@H](Oc2nccc3cc(OC)ccc23)CN1C(=O)[C@@H](NC(=O)OC(C)(C)CC)C(C)(C)C)C(=O)NS(=O)(=O)C1CCC1 [Compound 382] | > 7.00 | 6.00 to 7.00
CC[C@@H]1C[C@]1(NC(=O)[C@@H]1C[C@@H](Oc2nccc3c4c(ccc23)OC(F)(F)O4)CN1C(=O)[C@@H](NC(=O)OC(C)(C)C)C(C)(C)C)C(=O)NS(=O)(=O)C1CC1 [Compound 289] | > 7.00 | 6.00 to 7.00
C=CC1C[C@]1(NC(=O)[C@@H]1C[C@@H](Oc2nnc(-n3cncn3)c3ccccc23)CN1C(=O)[C@@H](NC(=O)OC(C)(C)C)C(C)(C)C)C(=O)NS(=O)(=O)C1CC1 (stereo partly drawn) [Compound 198, BOCNH-P3(L-tert-BuGly)-P2[(4R)-(4-(1,2,4-triazo-1-yl)phthalazine-1-oxo)-S-proline]-P1(1R,2S Vinyl Acca)-CONHSO2-Cyclopropane] | > 7.00 | 6.00 to 7.00
C=C[C@@H]1C[C@]1(NC(=O)[C@@H]1C[C@@H](Oc2ccnc(Br)c2)CN1C(=O)[C@@H](NC(=O)OC1CCCC1)C(C)(C)C)C(=O)NS(=O)(=O)C1CC1 [Compound 425] | 6.00 to 7.00 | 5.00 to 6.00
C=CC1C[C@]1(NC(=O)[C@@H]1C[C@@H](Oc2ccnc3ccc(F)cc23)CN1C(=O)[C@@H](NC(=O)OC(C)(C)C)C(C)(C)C)C(=O)NS(=O)(=O)C1CC1 (stereo partly drawn) [Compound 239, BOCNH-P3(L-t-BuGly)-P2[(4R)-(6-fluoroquinoline-4-oxo)-S -proline]-P1(1R,2S VinylAcca)-CONHSO2Cyclopropane] | > 7.00 | > 7.00
C=C[C@@H]1C[C@]1(NC(=O)[C@@H]1C[C@@H](Oc2ccnc(-c3cccs3)c2)CN1C(=O)[C@@H](NC(=O)OC1CCCC1)C(C)(C)C)C(=O)NS(=O)(=O)C1CC1 [Compound 429] | > 7.00 | > 7.00
C=C[C@@H]1C[C@]1(NC(=O)[C@@H]1C[C@@H](Oc2ccnc(-c3ccc(OC)cc3)c2)CN1C(=O)[C@@H](NC(=O)OC1CCCC1)C(C)(C)C)C(=O)NS(=O)(=O)C1CC1 [Compound 428] | > 7.00 | 6.00 to 7.00
C=CC1C[C@]1(NC(=O)[C@@H]1C[C@@H](Oc2nnc(Cl)c3ccccc23)CN1C(=O)[C@@H](NC(=O)OC(C)(C)C)C(C)(C)C)C(=O)NS(=O)(=O)C1CC1 (stereo partly drawn) [Compound 195, BOCNH-P3(L-tert-BuGly)-P2[(4R)-(4-chloro phthalazine-1-oxo)-S -proline]-P1(1R,2S Vinyl Acca)-CONHSO2-Cyclopropane] | > 7.00 | > 7.00
C=C[C@@H]1C[C@]1(NC(=O)[C@@H]1C[C@@H](Oc2nccc3ccc(OC)cc23)CN1C(=O)[C@@H](NC(=O)OC(C)(C)C)C(C)(C)C)C(=O)NS(=O)(=O)C1CC1 [Compound 260] | > 7.00 | 6.00 to 7.00
C=C[C@@H]1C[C@]1(NC(=O)[C@@H]1C[C@@H](Oc2nccc3cccc(OC)c23)CN1C(=O)[C@@H](NC(=O)OC(C)(C)C)C(C)(C)C)C(=O)NS(=O)(=O)C1CC1 [Compound 264] | 6.00 to 7.00 | 5.00 to 6.00
C=C[C@@H]1C[C@]1(NC(=O)[C@@H]1C[C@@H](Oc2nccc3cc(OC)ccc23)CN1C(=O)[C@@H](NC(=O)N[C@@H](C)C(=O)OC)C(C)(C)C)C(=O)NS(=O)(=O)C1CC1 [Compound 145] | > 7.00 | 6.00 to 7.00
C=C[C@@H]1C[C@]1(NC(=O)[C@@H]1CC(Oc2nc(-c3ccccc3)cc3ccccc23)CN1C(=O)[C@@H](NC(=O)OC(C)(C)C)[C@H](C)OC)C(=O)NS(=O)(=O)C1CC1 (stereo partly shown) [Compound 108] | > 7.00 | > 7.00
C=C[C@@H]1C[C@]1(NC(=O)[C@@H]1C[C@@H](Oc2nccc3cc(OC)ccc23)CN1C(=O)[C@@H](NC(=O)NC(C)(C)C)C(C)(C)C)C(=O)NS(=O)(=O)C1CCC1 [Compound 383] | > 7.00 | > 7.00
C=CC1C[C@]1(NC(=O)[C@@H]1C[C@@H](Oc2nnc(-n3ccnc3)c3ccccc23)CN1C(=O)[C@@H](N)C(C)(C)C)C(=O)NS(=O)(=O)C1CC1 (stereo partly drawn) [Compound 197, NH2—P3(L-tert-BuGly)-P2[(4R)-(4-(imidazo-1-yl)phthalazine-1-oxo)-S-proline]-P1(1R,2S Vinyl Acca)-CONHSO2-Cyclopropane] | 6.00 to 7.00 | 4.00 to 5.00
